Laboratory results as given in ChEMBL document CHEMBL1145998, “Thermal denaturation: a method to rank slow binding, high-affinity P38alpha MAP kinase inhibitors” (J Med Chem, 2003).

Columns and labels:
[1] = target: T1, Mitogen-activated protein kinase 14 (Homo sapiens, UniProt Q16539); test: Dissociation constant at Tm against human Mitogen-activated protein kinase p38 alpha
[2] = target: T1, Mitogen-activated protein kinase 14; test: Dissociation constant fit from ITC data against human Mitogen-activated protein kinase p38 alpha (constant fit)
[3] = target: T1, Mitogen-activated protein kinase 14; test: Dissociation constant at Tref against human Mitogen-activated protein kinase p38 alpha
[4] = target: T1, Mitogen-activated protein kinase 14; test: Dissociation constant at Tm against human Mitogen-activated protein kinase p38 alpha (fluorescence exchange curve)

T1 sequence (Q16539 whole entry): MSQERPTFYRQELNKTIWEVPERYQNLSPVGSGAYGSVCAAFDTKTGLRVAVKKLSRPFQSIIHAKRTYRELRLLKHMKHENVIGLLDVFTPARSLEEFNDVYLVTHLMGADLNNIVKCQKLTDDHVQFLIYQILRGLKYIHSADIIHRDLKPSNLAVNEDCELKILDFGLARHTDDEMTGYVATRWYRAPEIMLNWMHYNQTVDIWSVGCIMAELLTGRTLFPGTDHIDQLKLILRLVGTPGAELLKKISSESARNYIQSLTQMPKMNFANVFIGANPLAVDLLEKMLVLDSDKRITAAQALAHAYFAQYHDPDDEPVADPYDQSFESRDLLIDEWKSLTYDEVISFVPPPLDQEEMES

Kd [1] [nM] | Kd [2] [nM] | Kd [3] [nM] | Kd [4] [nM] | Compound
6070 | 1180 | 2400 |  | O=C(Nc1ccc(OCCN2CCOCC2)c2ccccc12)Nc1ccnn1-c1ccccc1
177 | 5 | 16.8 | 21 | Cc1ccc(-n2nc(C(C)(C)C)cc2NC(=O)Nc2ccccc2)cc1
5.3 |  | 0.231 | 0.09 | CC(C)(C)c1cc(NC(=O)Nc2ccc(OCCN3CCOCC3)c3ccccc23)n(-c2ccccc2)n1
62.8 |  | 3.4 | 6 | CC(C)c1cc(NC(=O)Nc2ccc(OCCN3CCOCC3)c3ccccc23)n(-c2ccccc2)n1
118 |  | 10.6 | 1 | Cc1ccc(-n2nc(C(C)(C)C)cc2NC(=O)Nc2cccc3ccccc23)cc1
210 | 10 | 25.7 |  | Cn1nc(C(C)(C)C)cc1NC(=O)Nc1ccc(OCCN2CCOCC2)c2ccccc12
493 | 20 | 56.4 | 36 | CC(C)(CO)c1cc(NC(=O)Nc2ccc(OCCN3CCOCC3)c3ccccc23)n(-c2ccccc2)n1
